Molecular target: T1, PCP site on NMDA receptor
T1 construct: gene Grin1; PCP (channel pore) site of the NMDA receptor complex
Assay: PCP-site binding assay
Settings: read-out: PCP site / IC50/Ki
Description: PCP-site binding assay on PCP site on NMDA receptor

Compound	IC50 [µM]
CNC1(c2ccccc2Cl)CCCC1=O (centres unmarked) [Ketamir-2, 1-(2-chlorophenyl)-N-methyl-2-oxocyclopentan-1-aminium]	~100
Nor-Ketamir	~470

Reference: paper PMC12231361, “KETAMIR-2, a new molecular entity and novel ketamine analog” (Frontiers in Pharmacology, 2025)
